Data: patent publication US20230000773A1, “NOVEL HEADGROUP LIPID COMPOUNDS AND COMPOSITIONS FOR INTRACELLULAR DELIVERY OF THERAPEUTIC AGENTS” (ModernaTX, Inc., priority 2019, published 2023)

Assays:
serum protein ApoE = test: ApoE binding affinity of nanoparticles (bead binding, flow cytometry)
Method: The ApoE binding affinity, i.e., the affinity of binding between nanoparticles comprising compounds of the disclosure and the serum protein ApoE, was determined by binding the nanoparticles to beads, then incubating them with known quantities of […]. The quantity of protein bound to the nanoparticle was then determined by flow cytometry.

[1] = Apparent LNP pKa by 2-(p-toluidino)-6-napthalene sulfonic acid (TNS) assay; type: physicochemical; settings: pH at half of maximum fluorescence
[2] = Surface hydrophobicity by Generalized Polarization by Laurdan (GPL); type: physicochemical; settings: normalized Generalized Polarization by Laurdan; higher N-GP = less polar surface
Method in brief: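 LNPs contained ionizable lipid:DSPC:cholesterol:PEG lipid at 50:10:38:2 mol %. Laurdan was post-inserted into the particle surface, and its fluorescence spectrum gave normalized generalized polarization (N-GP); higher N-GP means a less polar surface.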

[3] = Size and polydispersity index of nanoparticles comprising compounds of the disclosure; type: physicochemical; settings: compound:DSPC:cholesterol:PEG 2 50:10:38:2 mol %
Excerpt: Lipid nanoparticles (e.g., empty LNPs or loaded LNPs) may be characterized by a variety of methods. For example, microscopy (e.g., transmission electron microscopy or scanning electron microscopy) may be used to examine the morphology and size distribution of a nanoparticle composition. Dynamic light scattering or potentiometry (e.g., potentiometric titrations) may be used to measure zeta potentials. Dynamic light scattering may also be utilized to determine particle sizes. Instruments such as the Zetasizer Nano ZS (Malvern Instruments Ltd, Malvern, Worcestershire, UK) may also be used to measure multiple characteristics of a nanoparticle composition, such as particle size, polydispersity index, and zeta potential.
(§1) Nanoparticle compositions including a therapeutic and/or prophylactic can be optimized according to the selection of a compound according to Formula (I), (I-1), (A), (A-1), (A-1a), or (A-1b), the selection of additional lipids, the amount of each lipid in the lipid component, and the wt:wt ratio of the lipid component to the therapeutic and/or prophylactic. Nanoparticle compositions including DSPC as a phospholipid, cholesterol as a structural lipid, PEG 2 as a PEG lipid, and a compound according to Formula (I), (I-1), (A), (A-1), (A-1a), or (A-1b) were prepared. The ratios of the lipids were 50:10:38:2 mol % for the lipid according to Formula (I), (I-1), (A), (A-1), (A-1a), or (A-1b):DSPC:cholesterol:PEG 2. […]

[4] = Encapsulation efficiency (% EE), ribostar; type: physicochemical; settings: nanoparticles, compound:DSPC:cholesterol:PEG 2 50:10:38:2 mol %
Excerpt: The efficiency of encapsulation of a therapeutic and/or prophylactic describes the amount of therapeutic and/or prophylactic that is encapsulated or otherwise associated with a lipid nanoparticle (e.g., an empty LNP or a loaded LNP) after preparation, relative to the initial amount provided. The encapsulation efficiency is desirably high (e.g., close to 100%). The encapsulation efficiency may be measured, for example, by comparing the amount of therapeutic and/or prophylactic in a solution containing the lipid nanoparticle (e.g., an empty LNP or a loaded LNP) before and after breaking up the lipid nanoparticle (e.g., an empty LNP or a loaded LNP) with one or more organic solvents or detergents. Fluorescence may be used to measure the amount of free therapeutic and/or prophylactic (e.g., RNA) in a solution. For the lipid nanoparticles (e.g., empty LNPs or loaded LNPs) described herein, the encapsulation efficiency of a therapeutic and/or prophylactic may be at least 50%, for example 50%, 55%, 60%, 65%, 70%, 75%, 80%, 85%, 90%, 91%, 92%, 93%, 94%, 95%, 96%, 97%, 98%, 99%, or 100%. In some embodiments, the encapsulation efficiency may be at least 80%. In certain embodiments, the encapsulation efficiency may be at least 90%. In some embodiments, the encapsulation efficiency of the therapeutic and/or prophylactic agent is between 80% and 100%.
Nanoparticle compositions including a therapeutic and/or prophylactic can be optimized according to the selection of a compound according to Formula (I), (I-1), (A), (A-1), (A-1a), or (A-1b), the selection of additional lipids, the amount of each lipid in the lipid component, and the wt:wt ratio of the lipid component to the therapeutic and/or prophylactic. Nanoparticle compositions including DSPC as a phospholipid, cholesterol as a structural lipid, PEG 2 as a PEG lipid, and a compound according to Formula (I), (I-1), (A), (A-1), (A-1a), or (A-1b) were prepared. The ratios of the lipids were 50:10:38:2 mol % for the lipid according to Formula (I), (I-1), (A), (A-1), (A-1a), or (A-1b):DSPC:cholesterol:PEG 2. Tables 2a, 2b, and 3-5 summarize the characteristics of the formulations.
Table 4 summarizes the surface hydrophobicity of nanoparticles comprising compounds of the disclosure as determined by Generalized Polarization by Laurdan (GPL). Laurdan, a fluorescent aminonaphthalene ketone lipid, was post-inserted into the nanoparticle surface and the fluorescence spectrum of Laurdan was collected to determine the normalized Generalized Polarization (N-GP). Higher N-GP indicates a less polar surface.

hEPO mRNA = test: hEPO expression in CD1-mice after intravenous administration of nanoparticles; type: in vivo; settings: 6 h after intravenous administration, mRNA dose 0.5 mg/kg, N:P 3.4, compound:DSPC:cholesterol:PEG 2 50:10:38:2
Method: The expression of hEPO mRNA in CD1-mice was measured 6 h after intravenous administration of nanoparticles comprising a compound of the disclosure, DSPC, cholesterol, and PEG 2 in a ratio of 50:10:38:2. […] Each composition was dosed to 8 animals at an mRNA dose of 0.5 mg/kg.

[5] = Encapsulation efficiency (% EE), ribogreen; type: physicochemical; settings: nanoparticles, compound:DSPC:cholesterol:PEG 2 50:10:38:2 mol %
Excerpt: The efficiency of encapsulation of a therapeutic and/or prophylactic describes the amount of therapeutic and/or prophylactic that is encapsulated or otherwise associated with a lipid nanoparticle (e.g., an empty LNP or a loaded LNP) after preparation, relative to the initial amount provided. The encapsulation efficiency is desirably high (e.g., close to 100%). The encapsulation efficiency may be measured, for example, by comparing the amount of therapeutic and/or prophylactic in a solution containing the lipid nanoparticle (e.g., an empty LNP or a loaded LNP) before and after breaking up the lipid nanoparticle (e.g., an empty LNP or a loaded LNP) with one or more organic solvents or detergents. Fluorescence may be used to measure the amount of free therapeutic and/or prophylactic (e.g., RNA) in a solution.
as §1

[6] = Heparin-sepharose binding of nanoparticles
mRNA = mRNA integrity in nanoparticles by RP-IP HPLC (UV 260 nm); type: physicochemical
Method: Integrity of mRNA comprised in nanoparticles of the disclosure, i.e., the percentages of intact mRNA, mRNA adducts, and mRNA hydrolysis products, […] (Reverse-Phase Ion-Pairing HPLC) using UV detection at 260 nm. Total purity and impurities are calculated as percent peak area.

[7] = mRNA integrity after 2 weeks at 25° C., percent peak area
[8] = mRNA integrity at t = 0, percent peak area

| SMILES | Median Fluorescence Intensity, PE (serum protein ApoE) | LogIC50 (pKa) [1] | Average N-GP [2] | PDI [3] | Size (nm) [3] [nm] | % EE (ribostar) [4] [%] | % EE (ribogreen) [5] [%] | Relative % Area Bound by LNP [6] [%] | Adduct (mRNA; [7]) [%] | Hydrolysis Product (mRNA; [7]) [%] | Intact (mRNA; [7]) [%] | Adduct (mRNA; [8]) [%] | Hydrolysis Product (mRNA; [8]) [%] | Intact (mRNA; [8]) [%] | Avg. [hEPO] mIU/mL (hEPO mRNA) [mIU/mL] |
| --- | --- | --- | --- | --- | --- | --- | --- | --- | --- | --- | --- | --- | --- | --- | --- |
| CCCCCCCCC(CC)OC(=O)CCCCCCCN(CCCCCCCC(=O)OC(CCCCCCCC)CCCCCCCC)CCCNS(=O)(=O)CC (centres unmarked) [Compound 66, Heptadecan-9-yl 8-((3-(ethylsulfonamido)propyl)(8-oxo-8-(undecan-3-yloxy)octyl)amino)octanoate] | 112648 | 6.64 | 0.837 | 0.125 | 70.1 | 59.1 | 91.8 | 3.54 | 27.2 | 32.9 | 39.9 | 13.1 | 32.9 | 54.0 | 1.57E+06 |
| CCCCCCCCC(CC)OC(=O)CCCCCCCN(CCCCCCCC(=O)OC(CCCCCCCC)CCCCCCCC)CCCNc1ncccc1NC (centres unmarked) [Compound 34, Heptadecan-9-yl 8-((3-((3-(methylamino)pyridin-2-yl)amino)propyl)(8-oxo-8-(undecan-3-yloxy)octyl)amino)octanoate] | 3133 | 6.87 | 1.001 | 0.211 | 108.2 | 41.6 | 75.4 | 2.90 | 7.9 | 51.4 | 40.8 | 3.8 | 36.4 | 59.8 | 8.06E+05 |
| CCCCCCCCC(CC)OC(=O)CCCCCCCN(CCCCCCCC(=O)OC(CCCCCCCC)CCCCCCCC)CCCNc1n[s+]([O-])nc1NC (centres unmarked) [Compound 1, Heptadecan-9-yl 8-((3-((4-(methylamino)-1-oxido-1,2,5-thiadiazol-3-yl)amino)propyl)(8-oxo-8-(undecan-3-yloxy)octyl)amino)octanoate] | 182846 | 6.94 |  | 0.131 | 67.6 | 61.4 | 97.5 | 0 |  |  |  |  |  |  | 6.38E+05 |

More lines, main results first:

| Median Fluorescence Intensity, PE (serum protein ApoE) | LogIC50 (pKa) [1] | Average N-GP [2] | PDI [3] | Size (nm) [3] [nm] | % EE (ribostar) [4] [%] | % EE (ribogreen) [5] [%] | Relative % Area Bound by LNP [6] [%] | Adduct (mRNA; [7]) [%] | Hydrolysis Product (mRNA; [7]) [%] | Intact (mRNA; [7]) [%] | Adduct (mRNA; [8]) [%] | Hydrolysis Product (mRNA; [8]) [%] | Intact (mRNA; [8]) [%] | SMILES | Avg. [hEPO] mIU/mL (hEPO mRNA) [mIU/mL] |
| --- | --- | --- | --- | --- | --- | --- | --- | --- | --- | --- | --- | --- | --- | --- | --- |
| 78901 | 6.39 | 0.988 | 0.090 | 76.7 | 78.6 | 91.2 | 0 | 24.9 | 23.5 | 51.6 | 5.6 | 16.8 | 77.7 | CCCCCCCCC(CC)OC(=O)CCCCCCCN(CCCCCCCC(=O)OC(CCCCCCCC)CCCCCCCC)CCCNC1=C(C(N)=O)C(=O)OC1 (centres unmarked) [Compound 72, Heptadecan-9-yl 8-((3-((4-carbamoyl-5-oxo-2,5-dihydrofuran-3-yl)amino)propyl)(8-oxo-8-(undecan-3-yloxy)octyl)amino)octanoate] | 7.36E+05 |
| 146715 | 6.67 | 0.890 | 0.123 | 71.7 | 48.5 | 84.1 | 6.69 | 26.3 | 39.0 | 34.7 | 10.1 | 32.8 | 57.1 | CCCCCCCCC(CC)OC(=O)CCCCCCCN(CCCCCCCC(=O)OC(CCCCCCCC)CCCCCCCC)CCCNS(=O)(=O)C1CC1 (centres unmarked) [Compound 67, Heptadecan-9-yl 8-((3-(cyclopropanesulfonamido)propyl)(8-oxo-8-(undecan-3-yloxy)octyl)amino)octanoate] | 1.43E+06 |
